The results in this text go back to patent US20140205553A1, “AGENT FOR ENHANCING THE EFFECT OF SKIN-WHITENING INGREDIENTS AND USES THEREOF” (Hayashibara Co., Ltd., priority 2010, published 2014).

The assay has as its system mouse B16 melanoma cells. Put plainly: Melanin formation by mouse B16 melanoma cells cultured with test samples (melanin content, absorbance 450 nm). The class given is cell-based. Here is the method:
The effect of nucleic-acid-related compounds on melanin-formation inhibition was evaluated by using mouse B16 melanoma cells frequently used as an index for evaluating skin-whitening agents used in external dermatological agents. Since nucleic-acid-related compounds are roughly classified into purine and pyrimidine compounds, the following respective representative compounds were used as test samples. […] Thereafter, cells were collected after adding trypsin-EDTA to each well and subjecting the resultant to centrifugation. The collected cells were washed once with Dulbecco's PBS (-) (abbreviated as “D-PBS”, hereinafter) and centrifuged to remove the supernatant. To the remaining cell pellet was added 0.5 ml of 1N sodium hydroxide to solubilize the cells. The resulting alkali-solubilized solution was boiled for 30 min and determined for melanin content by the following method. […] Each of these wells was assayed for melanin content similarly as above. […] In this and the following experiments, it means that the lower the melanin formation percentage, the higher the melanin-formation inhibitory effect, i.e., the skin-whitening effect.

Setting [1] is: Experiment 1, test sample 10 μM.
[2] abbreviates: Mus musculus, B16, 120 h, molar ratio guanine:adenine or equol 0:1, total concentration 5 μM, read-out: Melanin formation percentage.
Setting [3] is: Mus musculus, B16, 120 h, test sample 2.5 μM in liquid culture medium, 5 days, negative control = 100, read-out: Melanin formation percentage.
[4] abbreviates: Mus musculus, B16, 120 h, test sample 5 μM in liquid culture medium, 5 days, negative control = 100, read-out: Melanin formation percentage.
The mark [5] stands for this setting: Mus musculus, B16, 120 h, test sample 10 μM in liquid culture medium, 5 days, negative control = 100, read-out: Melanin formation percentage.
Setting [6] is: Mus musculus, B16, 120 h, test sample 20 μM in liquid culture medium, 5 days, negative control = 100, read-out: Melanin formation percentage.
Where [7] appears, read: Experiment 2, test sample 5 μM alone.
Setting [8] is: Mus musculus, B16, 120 h, test sample 1 μM in liquid culture medium, 5 days, negative control = 100, read-out: Melanin formation percentage.
Where [9] appears, read: test sample 1 μM in liquid culture medium, 5 days, negative control = 100.
Setting [10] is: test sample 5 μM in liquid culture medium, 5 days, negative control = 100.
The mark [11] stands for this setting: test sample 10 μM in liquid culture medium, 5 days, negative control = 100.
Setting [12] is: test sample 20 μM in liquid culture medium, 5 days, negative control = 100.

Where two headings read alike, the source gives them in different places.

For `Nc1ncnc2nc[nH]c12` [Adenine], the “Melanin-formation inhibition (in words)” value under setting [1] is listed as “inhibited”. Further, the activity at 5 µM by setting is: under setting [2], 83%; under setting [4], 83%. In addition, the activity at 2.5 µM under setting [3] was found to be 95%. The activity at 10 µM under setting [5] was 60%. Besides, the activity at 20 µM under setting [6] was 39%.

For `O=c1[nH]cnc2nc[nH]c12` [Hypoxanthine, reference compound], the “Melanin-formation inhibition (in words)” value is recorded as “no melanin-formation inhibition was observed” under setting [1] and “No melanin-formation inhibition was found” under setting [7]. Further, under setting [4], the activity at 5 µM is 97%. For the same compound, the activity at 10 µM under setting [5] came out at 97%.

For `Oc1ccc([C@H]2COc3cc(O)ccc3C2)cc1` [Equol, equol], the activity at 5 µM under setting [2] was found to be 91% and the activity at 5 µM under setting [4] was found to be 67%. Also, under setting [8], the activity at 1 µM was determined as 91%. Besides, the “Enhancement of the skin-whitening (melanin-formation-inhibitory) action in combination (in words)” value (skin-whitening ingredient together with guanine including derivatives or other nucleic-acid-related compound) was “enhanced”.

For the compound `Oc1ccc([C@@H]2COc3cc(O)ccc3C2)cc1` [R-Equol, R-equol], the Melanin formation percentage under setting [9] is 94% and the Melanin formation percentage under setting [10] is given as 77%.

Take `Nc1nc2c(ncn2[C@@H]2O[C@H](CO)[C@@H](O)[C@H]2O)c(=O)[nH]1` [Guanosine, guanosine]: the activity at 1 µM under setting [8] was found to be 99%. Moreover, under setting [3], the activity at 2.5 µM was determined as 98%. Moreover, the activity at 5 µM under setting [4] was determined as 98%. In addition, the activity at 10 µM under setting [5] is 102%. Under setting [6], the activity at 20 µM is 97%.

Regarding `Nc1ncnc2c1ncn2[C@@H]1O[C@H](COP(=O)(O)OP(=O)(O)O)[C@@H](O)[C@H]1O` [Adenosine 5′-diphosphate, adenosine 5′-diphosphate], under setting [4], the activity at 5 µM came to 93%. Further, under setting [5], the activity at 10 µM came out at 81%. The activity at 20 µM under setting [6] is 51%.

For `O=c1[nH]c(=O)c2[nH]cnc2[nH]1` [Xanthine, reference compound], the “Melanin-formation inhibition (in words)” value is, setting by setting: under setting [1], “no melanin-formation inhibition was observed”; under setting [7], “No melanin-formation inhibition was found”. Besides, under setting [4], the activity at 5 µM is 100%. Further, under setting [5], the activity at 10 µM stood at 100%.

Consider `Nc1ncnc2c1ncn2[C@@H]1O[C@H](COP(=O)(O)O)[C@@H](O)[C@H]1O` [Adenosine 5′-monophosphate, adenosine 5′-monophosphate], for which, under setting [3], the activity at 2.5 µM amounted to 97%. Also, under setting [4], the activity at 5 µM worked out at 100%. Further, the activity at 10 µM under setting [5] came out at 82%. In addition, under setting [6], the activity at 20 µM came to 60%.

`O=c1cc[nH]c(=O)[nH]1` [Uracil, reference compound]: the “Melanin-formation inhibition (in words)” value under setting [1] is “no melanin-formation inhibition was observed” and the “Melanin-formation inhibition (in words)” value under setting [7] is “No melanin-formation inhibition was found”. For the same compound, the activity at 5 µM under setting [4] came to 98%. Moreover, the activity at 10 µM under setting [5] worked out at 99%.

Regarding `Nc1cc[nH]c(=O)n1` [Cytosine, reference compound], the “Melanin-formation inhibition (in words)” value under setting [1] was “no melanin-formation inhibition was observed” and the “Melanin-formation inhibition (in words)” value under setting [7] is listed as “No melanin-formation inhibition was found”. The activity at 5 µM under setting [4] came to 98%. In addition, under setting [5], the activity at 10 µM is 100%.

`OC[C@H]1O[C@H](Oc2ccc3c(c2)OC[C@H](c2ccc(O)cc2)C3)[C@H](O)[C@@H](O)[C@@H]1O` [7-Glucosyl-S-equol, 7-O-α-D-glycopyranosyl-S-equol]: the Melanin formation percentage is on record as 85% under setting [9] and 75% under setting [10].

Take `Nc1nc2nc[nH]c2c(=O)[nH]1` [Guanine]: the “Melanin-formation inhibition (in words)” value under setting [1] is recorded as “no melanin-formation inhibition was observed” and the “Melanin-formation inhibition (in words)” value under setting [7] was “No melanin-formation inhibition was found”. For the same compound, the activity at 5 µM is, setting by setting: (Mus musculus, B16, 120 h, read-out: Melanin formation percentage, molar ratio guanine:adenine or equol 1:0, total concentration 5 μM) 98%; (Mus musculus, B16, 120 h, read-out: Melanin formation percentage, test sample 5 μM in liquid culture medium, 5 days, negative control = 100) 98%. Moreover, the activity at 1 µM (Mus musculus, B16, 120 h, read-out: Melanin formation percentage, test sample 1 μM in liquid culture medium, 5 days, negative control = 100) is 100%. For the same compound, the activity at 2.5 µM (Mus musculus, B16, 120 h, read-out: Melanin formation percentage, test sample 2.5 μM in liquid culture medium, 5 days, negative control = 100) is 99%. Besides, the activity at 10 µM (Mus musculus, B16, 120 h, read-out: Melanin formation percentage, test sample 10 μM in liquid culture medium, 5 days, negative control = 100) was determined as 98%. Moreover, the activity at 20 µM (Mus musculus, B16, 120 h, read-out: Melanin formation percentage, test sample 20 μM in liquid culture medium, 5 days, negative control = 100) is 101%.

For `Oc1ccc([C@H]2COc3cc(O)ccc3C2)cc1` [S-Equol, S-equol], the Melanin formation percentage amounted to 86% under setting [9] and 60% under setting [10].

Consider `Nc1nc2c(ncn2[C@@H]2O[C@H](COP(=O)(O)OP(=O)(O)O)[C@@H](O)[C@H]2O)c(=O)[nH]1` [Guanosine 5′-diphosphate, guanosine 5′-diphosphate], for which the activity at 5 µM under setting [4] came out at 93%. The activity at 10 µM under setting [5] is 100%. The activity at 20 µM under setting [6] came to 95%.

Take `OC[C@H]1O[C@@H](n2cnc3c(O)ncnc32)[C@H](O)[C@@H]1O` [Inosine, reference compound]: the “Melanin-formation inhibition (in words)” value is given as “no melanin-formation inhibition was observed” under setting [1] and “No melanin-formation inhibition was found” under setting [7]. Also, the activity at 5 µM under setting [4] is 98%. For the same compound, under setting [5], the activity at 10 µM came out at 96%.

In the case of `Nc1ncnc2c1ncn2[C@@H]1O[C@H](COP(=O)(O)OP(=O)(O)OP(=O)(O)O)[C@@H](O)[C@H]1O` [Adenosine 5′-triphosphate, adenosine 5′-triphosphate], the activity at 5 µM under setting [4] turned out to be 93%. The activity at 10 µM under setting [5] was 80%. Besides, the activity at 20 µM under setting [6] turned out to be 53%.

As for `Nc1ncnc2c1ncn2[C@@H]1O[C@H](CO)[C@@H](O)[C@H]1O` [Adenosine, adenosine], under setting [3], the activity at 2.5 µM worked out at 98%. In addition, the activity at 5 µM under setting [4] came to 94%. Moreover, the activity at 10 µM under setting [5] came out at 71%. Further, the activity at 20 µM under setting [6] worked out at 48%.

For the compound `O=c1cc(CO)occ1O` [Kojic acid, reference compound], the activity at 500 µM (Mus musculus, B16, 120 h, test sample 500 μM in liquid culture medium, 5 days, negative control = 100, read-out: Melanin formation percentage) was found to be 71%. The activity at 1000 µM (Mus musculus, B16, 120 h, test sample 1000 μM in liquid culture medium, 5 days, negative control = 100, read-out: Melanin formation percentage) amounted to 49%. Moreover, the activity at 2000 µM (Mus musculus, B16, 120 h, test sample 2000 μM in liquid culture medium, 5 days, negative control = 100, read-out: Melanin formation percentage) was 30%. For the setting “at the concentrations used in the experiment”, the “Melanin-formation-inhibitory action of the test sample alone (in words)” value was “inhibited the melanin formation by mouse B16 melanoma cells in a concentration dependent manner”.

Regarding `OC[C@H]1O[C@H](Oc2ccc([C@H]3COc4cc(O)ccc4C3)cc2)[C@H](O)[C@@H](O)[C@@H]1O` [4′-Glucosyl-S-equol, 4′-O-α-D-glycopyranosyl-S-equol], the Melanin formation percentage by setting is: under setting [9], 85%; under setting [10], 74%.

As for `Nc1nc2c(ncn2[C@@H]2O[C@H](COP(=O)(O)OP(=O)(O)OP(=O)(O)O)[C@@H](O)[C@H]2O)c(=O)[nH]1` [Guanosine 5′-triphosphate, guanosine 5′-triuphosphate], the Melanin formation percentage is, setting by setting: under setting [10], 95%; under setting [11], 98%; under setting [12], 97%.

As to glucosylguanosine, the Melanin formation percentage was 99% under setting [9]; 98% (test sample 2.5 μM in liquid culture medium, 5 days, negative control = 100); 98% under setting [10]; 99% under setting [11]; 99% under setting [12].

Take glucosyladenosine: the Melanin formation percentage runs as follows: under setting [10], 89%; under setting [11], 63%; under setting [12], 43%.

Take `Cc1c[nH]c(=O)[nH]c1=O` [Thymine, reference compound]: the “Melanin-formation inhibition (in words)” value reads like this: under setting [1], “no melanin-formation inhibition was observed”; under setting [7], “No melanin-formation inhibition was found”. Further, under setting [4], the activity at 5 µM amounted to 99%. In addition, under setting [5], the activity at 10 µM is 97%.

`Nc1nc2c(ncn2[C@@H]2O[C@H](COP(=O)(O)O)[C@@H](O)[C@H]2O)c(=O)[nH]1` [Guanosine 5′-monophosphate, guanosine 5′-monophosphate]: under setting [8], the activity at 1 µM worked out at 99%. Besides, the activity at 2.5 µM under setting [3] was found to be 99%. Also, the activity at 5 µM under setting [4] came to 100%. The activity at 10 µM under setting [5] is 101%. In addition, the activity at 20 µM under setting [6] worked out at 101%.
